This is an account of results in ChEMBL document CHEMBL1132139, “2-Naphthylcarbapenems: broad spectrum antibiotics with enhanced potency against MRSA” (1999).

≈ marks a conversion by molar mass, not a printed value.

Assay [1] relates to Proteus. Nature of the assay: Compound was evaluated for the antibacterial activity against Proteus as fold improvement in activity with respect to imipenem. In kind it is functional, Proteus sp.
Assay [2] deals with Escherichia coli. Nature of the assay: Compound was evaluated for the antibacterial activity against Escherichia coli as fold improvement in activity with respect to imipenem. Format: functional.
Assay [3] deals with Staphylococcus aureus. The assay can be described thus: Compound was evaluated for the antibacterial activity against methicillin-sensitive Staphylococcus aureus (MSSA)as fold improvement in activity with respect to imipenem. Format: functional.
In assay [4] the test system is coagulase-negative Staphylococcus. The assay can be described thus: Compound was evaluated for the anti-MRCNS activity as MIC50.
The test system of assay [5] is Serratia. Nature of the assay: Compound was evaluated for the antibacterial activity against Serratia as fold improvement in activity with respect to imipenem. Format: functional.
For assay [6], the system named is Enterobacter. The assay can be described thus: Compound was evaluated for the antibacterial activity against Enterobacter as fold improvement in activity with respect to imipenem. Format: functional.
The test system of assay [7] is Staphylococcus aureus. The assay can be described thus: Compound was evaluated for the antibacterial activity against methicillin-resistant Staphylococcus aureus (MRSA)as fold improvement in activity with respect to imipenem. In kind it is functional.
In assay [8] the test system is Enterococcus. The assay can be described thus: Compound was evaluated for the antibacterial activity against Enterococcus as fold improvement in activity with respect to imipenem. In kind it is functional.
Assay [9] can be described thus: Compound was evaluated for the antibacterial activity against methicillin-resistant coagulase-negative staphylococci (MRCNS)as fold improvement in activity with respect to imipenem. Format: functional, Staphylococcus […].
Assay [10] addresses T1, Dipeptidase 1 (Sus scrofa) (UniProt P22412).
T1 sequence (whole entry): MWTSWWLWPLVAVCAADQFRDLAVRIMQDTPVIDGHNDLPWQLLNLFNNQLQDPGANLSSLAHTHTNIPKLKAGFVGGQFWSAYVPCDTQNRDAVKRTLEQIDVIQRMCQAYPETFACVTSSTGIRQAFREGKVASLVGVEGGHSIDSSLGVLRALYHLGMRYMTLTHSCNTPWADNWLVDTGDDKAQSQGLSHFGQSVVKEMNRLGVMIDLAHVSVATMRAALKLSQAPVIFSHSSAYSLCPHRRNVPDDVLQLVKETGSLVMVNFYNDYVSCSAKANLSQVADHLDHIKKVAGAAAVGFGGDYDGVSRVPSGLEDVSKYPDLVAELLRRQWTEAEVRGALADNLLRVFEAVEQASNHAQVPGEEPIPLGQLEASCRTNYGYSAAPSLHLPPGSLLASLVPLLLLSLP
Nature of the assay: Dehydropeptidase-1 susceptibility.

The subject of assay [11] is Staphylococcus aureus. Nature of the assay: Compound was evaluated for the anti-MRSA activity as MIC90. In kind it is functional.
The test system of assay [12] is Klebsiella. Nature of the assay: Compound was evaluated for the antibacterial activity against Klebsiella as fold improvement in activity with respect to imipenem. In kind it is functional.
Assay [13] has as its system Pseudomonas aeruginosa. The assay can be described thus: Compound was evaluated for the antibacterial activity against Pseudomonas aeruginosa as fold improvement in activity with respect to imipenem. In kind it is functional.
Assay [14] has as its system Staphylococcus aureus. The assay can be described thus: Compound was evaluated for the anti-MRSA activity as MIC50. In kind it is functional.
In assay [15] the test system is Staphylococcus aureus. Nature of the assay: Compound was evaluated for the antibacterial activity against methicillin-resistant coagulase-negative staphylococci (MRCNS). In kind it is functional.
In assay [16] the test system is Serratia. The assay can be described thus: Compound was evaluated for the antibacterial activity against Serratia. In kind it is functional.
Assay [17] has as its system Pseudomonas aeruginosa. The assay can be described thus: Compound was evaluated for the antibacterial activity against Pseudomonas aeruginosa. In kind it is functional.
Assay [18] concerns Staphylococcus aureus. Nature of the assay: Compound was evaluated for the antibacterial activity against methicillin-resistant Staphylococcus aureus (MRSA). Format: functional.
Assay [19] relates to Staphylococcus aureus. The assay can be described thus: Compound was evaluated for the antibacterial activity against methicillin-sensitive Staphylococcus aureus (MSSA). Format: functional.
In assay [20] the test system is Escherichia coli. The assay can be described thus: Compound was evaluated for the antibacterial activity against Escherichia coli. Format: functional.
In assay [21] the test system is Enterobacter. Nature of the assay: Compound was evaluated for the antibacterial activity against Enterobacter. In kind it is functional.
Assay [22] has as its system Proteus. Nature of the assay: Compound was evaluated for the antibacterial activity against Proteus. Format: functional, Proteus sp.
Assay [23] deals with Klebsiella. The assay can be described thus: Compound was evaluated for the antibacterial activity against Klebsiella.8. Format: functional.
In assay [24] the test system is Enterococcus. The assay can be described thus: Compound was evaluated for the antibacterial activity against Enterococcus. Format: functional.
The test system of assay [25] is Klebsiella. Nature of the assay: Compound was evaluated for the antibacterial activity against Klebsiella.8 as fold improvement in activity with respect to imipenem. Format: functional.

With `C[C@@H](O)[C@H]1C(=O)N2C(C(=O)[O-])=C(c3ccc4cc(C[n+]5ccc(N)cc5)ccc4c3)C[C@H]12`, the Activity with Proteus [1] worked out at 10; in the assay with Escherichia coli [2], 1.4; in the assay with Staphylococcus aureus [3], 0.45; in the assay with Serratia [5] it was 1.8; with Enterobacter [6], 0.92; with Staphylococcus aureus [7], 18. The Activity in the assay on Enterococcus [8] stood at 2.7; in [9] it was 77; in assay [10], 0.26; with Klebsiella [12] it was 0.4; in the assay on Pseudomonas aeruginosa [13], 0.02. Also, the MIC50 was found to be 8 µg/mL (≈ 18.6 µM) in assay [4] and 4 µg/mL (≈ 9.31 µM) with Staphylococcus aureus [14]. For the same molecule, the MIC90 in the assay with Staphylococcus aureus [11] came out at 8 µg/mL (≈ 18.6 µM).

On to `C[C@@H](O)[C@H]1C(=O)N2C(C(=O)O)=C(SCCNC=N)C[C@H]12` [IMIPENEM ANHYDROUS], for which the MIC was determined as 70 µg/mL (≈ 234 µM) in the assay with Staphylococcus aureus [15]; 0.29 µg/mL (≈ 0.969 µM) against Serratia [16]; 0.36 µg/mL (≈ 1.2 µM) against Pseudomonas aeruginosa [17]; 33 µg/mL (≈ 110 µM) against Staphylococcus aureus [18]; 0.01 µg/mL (≈ 0.0334 µM) in the assay with Staphylococcus aureus [19]; 0.19 µg/mL (≈ 0.635 µM) in the assay with Escherichia coli [20]. The MIC was 0.18 µg/mL (≈ 0.601 µM) in the assay on Enterobacter [21], 0.69 µg/mL (≈ 2.3 µM) in the assay on Proteus [22], 0.29 µg/mL (≈ 0.969 µM) with Klebsiella [23] and 1.8 µg/mL (≈ 6.01 µM) against Enterococcus [24]. Also, the figures for the MIC50 (in assay [4]; with Staphylococcus aureus [14]) were 128 µg/mL (≈ 428 µM) and 32 µg/mL (≈ 107 µM), respectively. The same molecule returned an Activity in assay [10] of 1. Besides, the MIC90 against Staphylococcus aureus [11] came out at 64 µg/mL (≈ 214 µM).

`C[C@@H](O)[C@H]1C(=O)N2C(C(=O)[O-])=C(c3ccc4cccc(C[n+]5ccc(N)cc5)c4c3)C[C@H]12`: the Activity is 0.48 in the assay on Proteus [1]; 0.09 in the assay on Escherichia coli [2]; 0.15 in the assay on Staphylococcus aureus [3]; 0.07 in the assay with Serratia [5]; 0.03 with Enterobacter [6]; 20 in the assay on Staphylococcus aureus [7]. Also, the Activity amounted to 2.4 with Enterococcus [8]; 40 in assay [9]; 0.01 in assay [10]; 0.01 in the assay with Pseudomonas aeruginosa [13]; 0.04 in the assay on Klebsiella [25]. The MIC50 in [4] is 16 µg/mL (≈ 37.3 µM); in the assay on Staphylococcus aureus [14] it was 8 µg/mL (≈ 18.6 µM). This molecule showed an MIC90 against Staphylococcus aureus [11] of 8 µg/mL (≈ 18.6 µM).

A word on the MIC50: it is an inhibitory concentration at the 50% level, which refers to growth in some studies and to a panel of isolates in others. In general, MIC90 refers to the lowest concentration that inhibits either 90% of growth or 90% of the strains tested, depending on the study. Low values mean higher susceptibility, high ones lower susceptibility. One may read the MIC as the smallest concentration in the dilution series that meets the test's criterion for growth inhibition. Low readings indicate inhibition by little substance, high ones a need for much substance.
